Laboratory results reported in PubChem BioAssay (NCI).
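Tested at 5 concentrations; 48 h exposure; 96-well plates; endpoints linearly interpolated, else capped at highest concentration. GI50 = concentration required for 50% inhibition of growth. TGI denotes the concentration required for complete inhibition of growth.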

test system: HS 578T breast; experiment: growth of human tumour cells (NCI), 48 h

Row | SMILES | GI50 | TGI
1 | CNC(=O)c1ccc(-c2cnc3ncc(Cc4ccc5ncccc5c4)n3n2)cc1F | 62.7 µM | > 100 µM
2 | O=C(Nc1cc(-c2ccccc2)[nH]n1)c1ccc(Cl)cc1 | 3.96 µM | 65.9 µM
3 | CN1CCN(Cc2ccc(NC(=O)c3ccc(C(C)(C)C)c(C#Cc4cnc5cccnn45)c3)cc2C(F)(F)F)CC1 | 10.4 µM | 39.2 µM
4 | C=CC(=O)N1CCN(c2ncnc3c(F)c(-c4c(O)cccc4F)c(Cl)cc23)CC1 | 19 µM | 66.4 µM
5 | COc1cc(/C=C2\CC3C4CC=C5CC(N6CCCC6)CC[C@]5(C)C4CC[C@]3(C)C2OC(C)=O)ccc1OCCN1CCCC1 (some centres not stated) | 2.38 µM | 4.54 µM
6 | CN(C)CCNC(=O)Nc1c(C#N)[n+]([O-])c2cc(Cl)c(Cl)cc2[n+]1[O-] | 33.4 µM | > 100 µM

test system: MALME-3M melanoma; experiment: growth of human tumour cells (NCI), 48 h

Row | SMILES | GI50 | TGI
7 | Cc1ccc(C(=O)CC(Sc2cccc(Cl)c2Cl)c2ccc(Cl)cc2)cc1C (configuration not stated) | 15.5 µM | 39.9 µM
8 | Oc1c(Br)cc(CN(Cc2cc(Br)c(O)c(Br)c2)C2CCCCC2)cc1Br | – | > 100 µM
9 | CNc1nc(NC2CCCC2)nc(Sc2ccc(OC)cc2)n1 | > 10 µM | > 10 µM
10 | C=CC(=O)Nc1cccc(Nc2nc(Nc3ccc(OCCOC)cc3)ncc2F)c1 | 3.08 µM | 20.9 µM
11 | CNC(=O)c1cn(C[C@H](F)CCc2ccc(NC(=O)Cc3cc(OC4CC(F)(F)C4)cc(C)n3)nn2)nn1 | > 100 µM | > 100 µM
12 | Cc1sc(C)c(-c2ccc(CO)o2)c1-c1ccc(CO)o1 | > 100 µM | > 100 µM
13 | CC1=C(C)C(=O)O[C@@H]([C@](C)(O)[C@]2(O)CC[C@@]3(O)[C@@H]4C[C@H]5O[C@]56CC=CC(=O)[C@]6(C)[C@H]4CC[C@]23C)C1 | 0.382 µM | 3.4 µM
14 | CNC(=O)c1ccc(-c2cnc3ncc(Cc4ccc5ncccc5c4)n3n2)cc1F | 62.7 µM | > 100 µM
15 | O=C(Nc1cc(-c2ccccc2)[nH]n1)c1ccc(Cl)cc1 | 12.1 µM | > 100 µM
16 | CN1CCN(Cc2ccc(NC(=O)c3ccc(C(C)(C)C)c(C#Cc4cnc5cccnn45)c3)cc2C(F)(F)F)CC1 | 1.78 µM | 3.97 µM
17 | C=CC(=O)N1CCN(c2ncnc3c(F)c(-c4c(O)cccc4F)c(Cl)cc23)CC1 | 11.5 µM | 24.8 µM
18 | COc1cc(/C=C2\CC3C4CC=C5CC(N6CCCC6)CC[C@]5(C)C4CC[C@]3(C)C2OC(C)=O)ccc1OCCN1CCCC1 (some centres not stated) | 1.49 µM | 3.07 µM
19 | CN(C)CCNC(=O)Nc1c(C#N)[n+]([O-])c2cc(Cl)c(Cl)cc2[n+]1[O-] | 21.6 µM | > 100 µM

test system: PC-3 prostate; experiment: growth of human tumour cells (NCI), 48 h

Row | SMILES | GI50 | TGI
20 | Cc1ccc(C(=O)CC(Sc2cccc(Cl)c2Cl)c2ccc(Cl)cc2)cc1C (configuration not stated) | 15.8 µM | 29.2 µM
21 | Oc1c(Br)cc(CN(Cc2cc(Br)c(O)c(Br)c2)C2CCCCC2)cc1Br | – | > 100 µM
22 | CNc1nc(NC2CCCC2)nc(Sc2ccc(OC)cc2)n1 | > 10 µM | > 10 µM
23 | C=CC(=O)Nc1cccc(Nc2nc(Nc3ccc(OCCOC)cc3)ncc2F)c1 | 2.92 µM | 26.9 µM
24 | CNC(=O)c1cn(C[C@H](F)CCc2ccc(NC(=O)Cc3cc(OC4CC(F)(F)C4)cc(C)n3)nn2)nn1 | > 100 µM | > 100 µM
25 | Cc1sc(C)c(-c2ccc(CO)o2)c1-c1ccc(CO)o1 | 32.7 µM | > 100 µM
26 | CC1=C(C)C(=O)O[C@@H]([C@](C)(O)[C@]2(O)CC[C@@]3(O)[C@@H]4C[C@H]5O[C@]56CC=CC(=O)[C@]6(C)[C@H]4CC[C@]23C)C1 | 0.247 µM | 5.97 µM
27 | CNC(=O)c1ccc(-c2cnc3ncc(Cc4ccc5ncccc5c4)n3n2)cc1F | > 100 µM | > 100 µM
28 | O=C(Nc1cc(-c2ccccc2)[nH]n1)c1ccc(Cl)cc1 | 37.4 µM | > 100 µM
29 | CN1CCN(Cc2ccc(NC(=O)c3ccc(C(C)(C)C)c(C#Cc4cnc5cccnn45)c3)cc2C(F)(F)F)CC1 | 1.89 µM | 4.12 µM
30 | C=CC(=O)N1CCN(c2ncnc3c(F)c(-c4c(O)cccc4F)c(Cl)cc23)CC1 | 7.29 µM | 30.3 µM
31 | COc1cc(/C=C2\CC3C4CC=C5CC(N6CCCC6)CC[C@]5(C)C4CC[C@]3(C)C2OC(C)=O)ccc1OCCN1CCCC1 (some centres not stated) | 3.45 µM | 10.2 µM
32 | CN(C)CCNC(=O)Nc1c(C#N)[n+]([O-])c2cc(Cl)c(Cl)cc2[n+]1[O-] | 18.4 µM | > 100 µM

test system: SF-295 CNS; experiment: growth of human tumour cells (NCI), 48 h

Row | SMILES | GI50 | TGI
33 | Cc1ccc(C(=O)CC(Sc2cccc(Cl)c2Cl)c2ccc(Cl)cc2)cc1C (configuration not stated) | 16.9 µM | 37.2 µM
34 | Oc1c(Br)cc(CN(Cc2cc(Br)c(O)c(Br)c2)C2CCCCC2)cc1Br | – | > 100 µM
35 | CNc1nc(NC2CCCC2)nc(Sc2ccc(OC)cc2)n1 | > 10 µM | > 10 µM
36 | C=CC(=O)Nc1cccc(Nc2nc(Nc3ccc(OCCOC)cc3)ncc2F)c1 | 2.95 µM | 14 µM
37 | CNC(=O)c1cn(C[C@H](F)CCc2ccc(NC(=O)Cc3cc(OC4CC(F)(F)C4)cc(C)n3)nn2)nn1 | > 100 µM | > 100 µM
38 | Cc1sc(C)c(-c2ccc(CO)o2)c1-c1ccc(CO)o1 | 0.276 µM | > 100 µM
39 | CC1=C(C)C(=O)O[C@@H]([C@](C)(O)[C@]2(O)CC[C@@]3(O)[C@@H]4C[C@H]5O[C@]56CC=CC(=O)[C@]6(C)[C@H]4CC[C@]23C)C1 | 0.62 µM | 14.7 µM
40 | CNC(=O)c1ccc(-c2cnc3ncc(Cc4ccc5ncccc5c4)n3n2)cc1F | 22.1 µM | > 100 µM
41 | O=C(Nc1cc(-c2ccccc2)[nH]n1)c1ccc(Cl)cc1 | 1.91 µM | > 100 µM
42 | CN1CCN(Cc2ccc(NC(=O)c3ccc(C(C)(C)C)c(C#Cc4cnc5cccnn45)c3)cc2C(F)(F)F)CC1 | 1.97 µM | 3.96 µM
43 | C=CC(=O)N1CCN(c2ncnc3c(F)c(-c4c(O)cccc4F)c(Cl)cc23)CC1 | 15.2 µM | 35.3 µM
44 | COc1cc(/C=C2\CC3C4CC=C5CC(N6CCCC6)CC[C@]5(C)C4CC[C@]3(C)C2OC(C)=O)ccc1OCCN1CCCC1 (some centres not stated) | 12.7 µM | 26.5 µM
45 | CN(C)CCNC(=O)Nc1c(C#N)[n+]([O-])c2cc(Cl)c(Cl)cc2[n+]1[O-] | 15 µM | 84.8 µM
